PubChem BioAssay (NCI)
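Grown in 96-well plates, cells were treated for 48 hours with each compound at five concentrations. Insufficient inhibition: endpoint recorded as highest concentration tested. The concentration for 50% growth inhibition is given as GI50. TGI denotes the concentration required for complete inhibition of growth.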

Assays:
Experiment in all cases: DTP human tumour cell line panel, 48 h
[1] = system: 786-0 renal
[2] = system: A498 renal
[3] = system: A549 NSCLC
[4] = system: ACHN renal
[5] = system: BT-549 breast
[6] = system: CAKI-1 renal
[7] = system: CCRF-CEM leukemia
[8] = system: COLO 205 colon
[9] = system: DU-145 prostate
[10] = system: HCC-2998 colon
[11] = system: HCT-116 colon
[12] = system: HCT-15 colon
[13] = system: HL-60(TB) leukemia
[14] = system: HOP-62 NSCLC
[15] = system: HOP-92 NSCLC
[16] = system: HS 578T breast
[17] = system: HT29 colon
[18] = system: IGROV1 ovarian
[19] = system: K-562 leukemia
[20] = system: KM12 colon
[21] = system: LOX IMVI melanoma
[22] = system: M14 melanoma
[23] = system: MALME-3M melanoma
[24] = system: MCF7 breast
[25] = system: MDA-MB-231 breast
[26] = system: MDA-MB-435
[27] = system: MOLT-4 leukemia
[28] = system: NCI-H226 lung
[29] = system: NCI-H23 lung
[30] = system: NCI-H460 lung
[31] = system: NCI-H522 lung
[32] = system: NCI/ADR-RES ovarian
[33] = system: OVCAR-3 ovarian
[34] = system: OVCAR-4 ovarian
[35] = system: OVCAR-5 ovarian
[36] = system: OVCAR-8 ovarian
[37] = system: PC-3 prostate
[38] = system: RPMI-8226 leukemia
[39] = system: RXF 393 renal
[40] = system: SF-268 CNS
[41] = system: SF-295 CNS
[42] = system: SF-539 CNS
[43] = system: SK-MEL-2 melanoma
[44] = system: SK-MEL-28 melanoma
[45] = system: SK-MEL-5 melanoma
[46] = system: SK-OV-3 ovarian
[47] = system: SN12C renal
[48] = system: SNB-19 CNS
[49] = system: SNB-75 CNS
[50] = system: SR leukemia
[51] = system: SW-620 colon
[52] = system: T-47D breast
[53] = system: TK-10 renal
[54] = system: U251 CNS
[55] = system: UACC-257 melanoma
[56] = system: UACC-62 melanoma
[57] = system: UO-31 renal

## OCc1ccc(N(Cc2ccc(F)cc2)C2CCC2)cc1Cl
[1]
  GI50: 10.3 µM
  TGI: 24.3 µM
[2]
  GI50: 0.0332 µM
  TGI: 0.156 µM
[3]
  GI50: 2.04 µM
  TGI: 17.9 µM
[4]
  GI50: 13.2 µM
  TGI: 26.4 µM
[5]
  GI50: 17.7 µM
  TGI: 32.8 µM
[6]
  GI50: 0.619 µM
  TGI: 4.02 µM
[7]
  GI50: 14.9 µM
  TGI: 34.6 µM
[8]
  GI50: 3.5 µM
  TGI: 11.5 µM
[9]
  GI50: 14.2 µM
  TGI: 28 µM
[10]
  GI50: 5.42 µM
  TGI: 22.7 µM
[11]
  GI50: 0.115 µM
  TGI: 3.73 µM
[12]
  GI50: 10.9 µM
  TGI: 25.7 µM
[13]
  GI50: 5.7 µM
  TGI: 25.5 µM
[14]
  GI50: 2.05 µM
  TGI: 17.5 µM
[15]
  GI50: 0.3 µM
  TGI: 6.69 µM
[16]
  GI50: 19 µM
  TGI: 45.4 µM
[17]
  GI50: 3.89 µM
  TGI: 15.3 µM
[18]
  GI50: 0.0698 µM
  TGI: 0.339 µM
[19]
  GI50: 1.01 µM
  TGI: 15 µM
[20]
  GI50: 14.5 µM
  TGI: 28.7 µM
[21]
  GI50: 15.1 µM
  TGI: 29.3 µM
[22]
  GI50: 15.8 µM
  TGI: 32 µM
[23]
  GI50: 16.2 µM
  TGI: 31.3 µM
[24]
  GI50: 0.178 µM
  TGI: 10.9 µM
[25]
  GI50: 14.9 µM
  TGI: 28.6 µM
[26]
  GI50: 16.2 µM
  TGI: 31.1 µM
[27]
  GI50: 15.7 µM
  TGI: 36.7 µM
[28]
  GI50: 0.0569 µM
  TGI: 0.193 µM
[29]
  GI50: 9.41 µM
  TGI: 25.4 µM
[30]
  GI50: 0.275 µM
  TGI: 10.2 µM
[31]
  GI50: 13 µM
  TGI: 28.6 µM
[32]
  GI50: 12.7 µM
  TGI: 27.8 µM
[33]
  GI50: 0.403 µM
  TGI: 2.05 µM
[34]
  GI50: 0.207 µM
  TGI: 2.69 µM
[35]
  GI50: 0.106 µM
  TGI: 0.495 µM
[36]
  GI50: 13.4 µM
  TGI: 29.1 µM
[37]
  GI50: 11.9 µM
  TGI: 24.8 µM
[38]
  GI50: 3.03 µM
  TGI: 25.4 µM
[39]
  GI50: 3.57 µM
  TGI: 16.6 µM
[40]
  GI50: 18.1 µM
  TGI: 33.9 µM
[41]
  GI50: 0.437 µM
  TGI: 12.9 µM
[42]
  GI50: 16.7 µM
  TGI: 31.3 µM
[43]
  GI50: 4.89 µM
  TGI: 20.1 µM
[44]
  GI50: 13.5 µM
  TGI: 26.4 µM
[45]
  GI50: 9.11 µM
  TGI: 21.8 µM
[46]
  GI50: 11 µM
  TGI: 23 µM
[47]
  GI50: 11.8 µM
  TGI: 24.4 µM
[48]
  GI50: 13.8 µM
  TGI: 27.5 µM
[49]
  GI50: 12.2 µM
  TGI: 24.8 µM
[50]
  GI50: 15.3 µM
  TGI: 35 µM
[51]
  GI50: 0.744 µM
  TGI: 16.8 µM
[52]
  GI50: 0.141 µM
  TGI: 0.815 µM
[53]
  GI50: 0.0551 µM
  TGI: 0.278 µM
[54]
  GI50: 1.02 µM
  TGI: 16.2 µM
[55]
  GI50: 0.121 µM
  TGI: 0.46 µM
[56]
  GI50: 0.124 µM
  TGI: 0.846 µM
[57]
  GI50: 1.88 µM
  TGI: 15.2 µM
